Laboratory results from ChEMBL document CHEMBL1151618, “Neoisostegane, a new bisbenzocyclooctadiene lignan lactone from Steganotaenia araliacea” (1984).
≈ marks a conversion by molar mass, not a printed value.

System: KB
Assay: Cytotoxicity against human KB cells
Format: functional
Settings: read-out: ED50 (the source's name)

COc1cc2c(cc1OC)-c1cc(OC)c(OC)c(OC)c1C[C@H]1C(=O)OC[C@@H]1C2 [NEOISOSTEGANE]
EC50: 6.6 µg/mL (≈ 15.9 µM)
